From PubChem BioAssay (NCI)
“And” between values parts separate entries of the source, which are not always exact repeats. Identical values can stand only once.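 Briefly, cells in 96-well plates were exposed to five compound concentrations for 48 h, and endpoints were estimated by linear interpolation. GI50 marks 50% less growth. TGI marks complete inhibition of growth.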

How the values were obtained:
Test in all cases: NCI-60 cell line screen, 48 h
PC-3 prostate = system: PC-3 prostate
U251 CNS = system: U251 CNS
SK-OV-3 ovarian = system: SK-OV-3 ovarian
K-562 leukemia = system: K-562 leukemia
OVCAR-8 ovarian = system: OVCAR-8 ovarian
NCI-H522 lung = system: NCI-H522 lung
NCI-H226 lung = system: NCI-H226 lung
A498 renal = system: A498 renal
ACHN renal = system: ACHN renal
SR leukemia = system: SR leukemia

Row | SMILES | GI50 (PC-3 prostate) [µM] | TGI (PC-3 prostate) [µM] | GI50 (U251 CNS) | TGI (U251 CNS) | GI50 (SK-OV-3 ovarian) [µM] | TGI (SK-OV-3 ovarian) [µM] | GI50 (K-562 leukemia) | TGI (K-562 leukemia) | GI50 (OVCAR-8 ovarian) [µM] | TGI (OVCAR-8 ovarian) | GI50 (NCI-H522 lung) [µM] | TGI (NCI-H522 lung) [µM] | GI50 (NCI-H226 lung) | TGI (NCI-H226 lung) | GI50 (A498 renal) [µM] | TGI (A498 renal) | GI50 (ACHN renal) [µM] | TGI (ACHN renal) | GI50 (SR leukemia) | TGI (SR leukemia)
1 | CCOC(=O)CCCn1c(SC)nc2[nH]cc(-c3ccccc3)c2c1=O | 13.8 | 35.8 | 16.8 µM | 58.5 µM | 25.6 | 93.6 | 12.7 µM | 56.9 µM | 19 | 58.9 µM | 15 | 37.8 | 14.1 µM | 45.1 µM | 16.5 | 63.3 µM | 8.09 | 43.2 µM |  | 
2 | CCCCCCNC(=O)c1cc(NCc2cc(O)ccc2O)ccc1O | 2.47 | 12 | 12.1 µM | 28.5 µM | 25.8 | > 100 | 2.71 µM | 12.8 µM | 4.83 | 36.2 µM | 0.265 | 0.752 |  |  | 16.1 | > 100 µM | 4.02 | 15.7 µM | 2.88 µM | > 100 µM
3 | C=C1C(=O)O[C@@H]2C[C@@H]1CC/C(C)=C/CC/C(C)=C/CC[C@@]2(C)O | 6.73 | 21.3 | 18.4 µM | 43.6 µM | 46.6 | > 100 | 4.7 µM | 17.3 µM | 21.7 | 85.4 µM | 6.36 | 23.7 | 4.54 µM | 22.2 µM | 23.4 | 41.3 µM | 13 | 28.1 µM | 1.63 µM | 3.58 µM
4 | S=C1NC2(CCCCCC2)NN1c1ccccc1 |  | > 100 |  | > 100 µM |  | > 100 |  | 16.6 µM |  | > 100 µM |  | > 100 |  | > 100 µM |  | > 100 µM |  | > 100 µM |  | > 100 µM
5 | C=COCCCOc1ccccc1 | > 100 | > 100 |  | > 100 µM | > 100 | > 100 |  | > 100 µM |  | > 100 µM |  | > 100 |  | > 100 µM | > 100 | > 100 µM |  | > 100 µM |  | > 100 µM
6 | O=C1c2cccc(NCCCNCCO)c2C(=O)c2cccc(NCCCNCCO)c21 |  | 5.84 | 0.536 µM and 1.4 µM | 2.13 µM and 4.46 µM |  | 7.23 | 3.69 µM and 1.05 µM | 18.8 µM and 8.27 µM |  | 4.57 µM and 5.66 µM |  | 1.6 | 1.93 µM and 0.729 µM | 5.11 µM and 2.99 µM |  | 4.66 µM and 7.58 µM |  | 5.71 µM and 10.4 µM | 2.56 µM and 0.532 µM | 6.25 µM and 7.33 µM
7 | O=C(Cc1ccc(/C=C/C(=O)c2ncc[nH]2)cc1)Nc1cc(F)c(F)c(F)c1 | 3.8 | 9.12 | 0.992 µM | 3.8 µM | 7.01 | > 25 | 2.31 µM | > 25 µM | 5.58 | > 25 µM | 3.46 | 8.01 | 4.83 µM | 12.8 µM | 4.34 | 9.98 µM | 3.89 | 7.23 µM | 2.16 µM | 13.3 µM
8 | CN(C)N=Nc1ccc(NC=O)cc1 |  | > 100 |  | > 100 µM |  | > 100 |  | > 100 µM |  | > 100 µM |  |  |  |  |  | > 100 µM |  | > 100 µM |  | > 100 µM
9 | O=C(Nc1ccc(Cl)cc1F)c1ccccc1O | 2.77 | 10.9 | 3.42 µM | > 100 µM |  |  | 3.5 µM | > 100 µM | 3.61 | > 100 µM | 2.45 | 30 | 2.23 µM | 8.85 µM | 2.22 | 6.29 µM | 2.36 | 7.54 µM | 5.73 µM | > 100 µM
10 | O=c1c2sc(=S)n(-c3ccc(F)cc3)c2ncn1Cc1ccc(F)cc1F | 80.8 | > 100 | > 100 µM | > 100 µM | > 100 | > 100 | > 100 µM | > 100 µM | > 100 | > 100 µM | > 100 | > 100 | > 100 µM | > 100 µM | > 100 | > 100 µM | > 100 | > 100 µM |  | 
11 | O=C(OC(CNc1cc(=O)n(Cc2ccccc2)c(=O)n1Cc1ccccc1)CN1CCCC1)c1ccccc1 (centres undefined) | > 100 | > 100 | > 100 µM | > 100 µM | > 100 | > 100 | 92.1 µM | > 100 µM | > 100 | > 100 µM | > 100 | > 100 | 81.8 µM | > 100 µM | > 100 | > 100 µM | > 100 | > 100 µM |  | 
12 | COc1ccc(CN2C(=O)/C(=C\C(=O)c3ccc(OCCN4CCCCC4)cc3)c3ccccc32)cc1 | 2.7 | 5.55 | 2.24 µM | 5.15 µM | 18.4 | 34.3 | 2.31 µM | 10.4 µM |  |  | 1.97 | 3.78 | 14.9 µM | 32.2 µM | 13.5 | 27 µM | 1.69 | 3.05 µM | 2.04 µM | 7.4 µM
13 | CCC(C)n1ncn(-c2ccc(N3CCN(c4ccc(OCC5COC(Cn6cncn6)(c6ccc(Cl)cc6Cl)O5)cc4)CC3)cc2)c1=O (centres undefined) | 3.96 | > 100 | 4.03 µM | > 100 µM | 24.2 | > 100 | 9.76 µM | > 100 µM | 20.2 | > 100 µM | 15.4 | 60.8 | 28.1 µM | > 100 µM | 10.8 | > 100 µM | 21.7 | > 100 µM |  | 
14 | CS(=O)(=O)Nc1ccc2c(c1)oc(=O)c1ccccc12 |  | > 100 |  | > 100 µM |  |  |  | > 100 µM |  | > 100 µM |  | > 100 |  | > 100 µM |  | > 100 µM |  | > 100 µM |  | > 100 µM
15 | COc1cc(C#CC(=O)OC/C=C/c2ccc3c(c2)OCO3)cc(OC)c1OC |  | 72.3 |  | > 100 µM |  | 68.6 |  | 58.1 µM |  | > 100 µM |  |  |  | 48.5 µM |  | 21.5 µM |  | > 100 µM |  | 40.5 µM
